The values below come from patent US5093134A, “Method of treating HIV infection using polyoxometallates” (Johnson Matthey Public Limited Company, priority 1989, dated 1992).

“And” between values parts separate entries of the source, which are not always exact repeats. Identical values can stand only once. Bounds are passed on as bounds.

For orientation: CC50 means the concentration that lowers cell viability or growth by half. A high value points to better tolerance by the cells.

One data set concerns HIV-1 (HTLV-IIIB). Kind of data set: microbe, parasite or virus in culture. The class given is cell-based. The note with it: for Selectivity Index (SI), ratio of CD50 to ED50 / ED50: HIV-1, MT-4 cells; for ED50: 100 CCID50, 5 days, MTT. Here is the method: (§1) The compounds were tested in a screen by the MTT method (J. Virol. Methods […]: 309-321 [1988]). MT-4 cells (2.5×10^4 /well) were infected with HIV-1 (HTLV-IIIB) or HIV-2 (LAV-2 ROD) at a concentration of 100 CCID50 and incubated in the presence of various concentrations of the test compounds, which were added immediately after infection with the virus. After 5 days culture at 37° C. in a CO2 incubator, the number of viable cells was assessed by the MTT (tetrazolium) method. […] The potential therapeutic usefulness was assessed by calculating a Selectivity Index (SI) corresponding to the ratio of CD50 to ED50.

A further data set is described as follows: in vitro. The note with it: human, mt-4 cells. As for the experimental part: as §1
The next data set concerns MT-4 cells. Kind of data set: in vitro. As for the experimental part: as §1
The test system of the next data set is cells. The note with it: in words; cited from earlier work.
The test system of another data set is HIV-2 (LAV-2 ROD). Kind of data set: MTT screen of HIV-2 infected MT-4 cells (antiviral activity). The class given is cell-based. To be noted: for ED50: 100 CCID50, 5 days, MTT. Here is the method:
as §1

The next data set deals with herpes virus. To be noted: in words; cited from earlier work.
In the next data set the test system is reverse transcriptase. The note with it: in words; cited from earlier work.
In another data set the test system is HIV. To be noted: in words; cited from earlier work.

Take `Cc1cn([C@H]2C[C@H](N=[N+]=[N-])[C@@H](CO)O2)c(=O)[nH]c1=O` [AZT, reference compound]: the “Selectivity Index (SI), ratio of CD50 to ED50” value (“Selectivity Index (SI), ratio” below) with HIV-1 (HTLV-IIIB) is 125 and > 125. The EC50 with HIV-1 (HTLV-IIIB) (Human immunodeficiency virus 1, IIIB, MT4, 120 h, read-out: ED50) is < 8 nM. Also, the CC50 at 120 h in the data set “in vitro” was > 1000 nM. Further, the “toxicity (in words)” value in the data set with MT-4 cells was “rather high toxicity”. Besides, the toxicity to cells entry in the data set with cells is “high toxicity to cells”.
Regarding “((CH3)3 NH^+)5 [SiSn(CH3)W11 O39 ]yH2 O [Compound C]”, in the data set on HIV-1 (HTLV-IIIB), the “Selectivity Index (SI), ratio” value came to 40 and the ED50 stood at 0.57 µg/mL. Also, in the data set on HIV-2 (LAV-2 ROD), the “Selectivity Index (SI), ratio” value was 19 and the ED50 was found to be 3.48 µg/mL.
Take “(C5 H5 NH^+)6 [SiCo(C5 H5 N)W11 O39 ]yH2 O [Compound A]”: the “Selectivity Index (SI), ratio” value in the data set with HIV-1 (HTLV-IIIB) was > 502; in the data set with HIV-2 (LAV-2 ROD), > 415. The ED50 in the data set with HIV-1 (HTLV-IIIB) was 1.99 µg/mL; with HIV-2 (LAV-2 ROD), 2.41 µg/mL. The CD50 in the data set on MT-4 cells (human, mt-4 cells, 120 h) was > 1000.0 µg/mL.
“(C6 H11 NH3^+)6 [SiCo(C6 H11 NH2)W11 O39 ]yH2 O [Compound B]”: in the data set on HIV-1 (HTLV-IIIB), the “Selectivity Index (SI), ratio” value is recorded as 99 and the ED50 worked out at 0.98 µg/mL. Moreover, in the data set with HIV-2 (LAV-2 ROD), the “Selectivity Index (SI), ratio” value came out at 26 and the ED50 came to 3.01 µg/mL.
Take K5 BW12 O40: in the data set with herpes virus, the “activity against herpes virus” value is “activity against herpes virus”.
With K5 [BPt(OH2)W11 O39 ]yH2 O, the “Selectivity Index (SI), ratio” value in the data set with HIV-1 (HTLV-IIIB) amounted to 198; in the data set on HIV-2 (LAV-2 ROD), 49. The ED50 with HIV-1 (HTLV-IIIB) turned out to be 1.66 µg/mL; with HIV-2 (LAV-2 ROD), 6.21 µg/mL.
As to K5 [PCu(OH2)W11 O39 ]yH2 O, in the data set with HIV-1 (HTLV-IIIB), the “Selectivity Index (SI), ratio” value is given as > 82 and the ED50 worked out at 3.04 µg/mL. In the data set with HIV-2 (LAV-2 ROD), the “Selectivity Index (SI), ratio” value is > 68 and the ED50 is < 2.0 µg/mL.
Regarding K5 [PNi(OH2)W11 O39 ]14H2 O, in the data set with HIV-1 (HTLV-IIIB), the “Selectivity Index (SI), ratio” value was < 1 and the ED50 was > 250.0 µg/mL. Moreover, in the data set on HIV-2 (LAV-2 ROD), the “Selectivity Index (SI), ratio” value is on record as < 1 and the ED50 is > 250.0 µg/mL.
Regarding K5 [SiGa(OH2)W11 O39 ]yH2 O, in the data set on HIV-1 (HTLV-IIIB), the “Selectivity Index (SI), ratio” value came out at 100 and the ED50 is 1.06 µg/mL. Moreover, in the data set with HIV-2 (LAV-2 ROD), the “Selectivity Index (SI), ratio” value is on record as 14 and the ED50 stood at 6.19 µg/mL.
The corresponding values for K6 [BGa(OH2)W11 O39 ]yH2 O are 5151, 0.12 µg/mL, 298 and 1.62 µg/mL.
Consider K6 [BRh(OH2)W11 O39 ]14H2 O, for which, in the data set on HIV-1 (HTLV-IIIB), the “Selectivity Index (SI), ratio” value is listed as 97 and the ED50 was 5.88 µg/mL. In addition, in the data set on HIV-2 (LAV-2 ROD), the “Selectivity Index (SI), ratio” value is recorded as 18 and the ED50 amounted to 31.58 µg/mL.
For the compound K6 [SiCo(OH2)W11 O39 ]yH2 O, in the data set with HIV-1 (HTLV-IIIB), the “Selectivity Index (SI), ratio” value is listed as > 52 and the ED50 was < 2.0 µg/mL. For the same compound, in the data set on HIV-2 (LAV-2 ROD), the “Selectivity Index (SI), ratio” value is reported as > 15 and the ED50 was < 2.0 µg/mL.
In the case of K6 [SiCu(OH2)W11 O39 ]yH2 O, in the data set with HIV-1 (HTLV-IIIB), the “Selectivity Index (SI), ratio” value was > 84 and the ED50 is < 2.0 µg/mL. Moreover, in the data set with HIV-2 (LAV-2 ROD), the “Selectivity Index (SI), ratio” value is recorded as > 125 and the ED50 is < 2.0 µg/mL.
For the compound K6 [SiNi(OH2)W11 O39 ]15H2 O, in the data set with HIV-1 (HTLV-IIIB), the “Selectivity Index (SI), ratio” value turned out to be 103 and the ED50 turned out to be 1.93 µg/mL. Moreover, in the data set with HIV-2 (LAV-2 ROD), the “Selectivity Index (SI), ratio” value was 55 and the ED50 was determined as 3.58 µg/mL. In the data set on MT-4 cells (human, mt-4 cells, 120 h), this compound displayed a CD50 of 198.43 µg/mL.
On to K7 PW10 Ti2 O40, for which the “activity against herpes virus” value with herpes virus is “activity against herpes virus”.
As to K7 [BCo(OH2)W11 O39 ]yH2 O, in the data set on HIV-1 (HTLV-IIIB), the “Selectivity Index (SI), ratio” value was found to be 47 and the ED50 is 2.74 µg/mL. Moreover, in the data set on HIV-2 (LAV-2 ROD), the “Selectivity Index (SI), ratio” value is reported as < 1 and the ED50 is > 200.0 µg/mL.
Consider K7 [BCu(OH2)W11 O39 ]yH2 O, for which, in the data set with HIV-1 (HTLV-IIIB), the “Selectivity Index (SI), ratio” value was 32 and the ED50 was determined as 3.51 µg/mL. In the data set with HIV-2 (LAV-2 ROD), the “Selectivity Index (SI), ratio” value is recorded as 62 and the ED50 was 2.56 µg/mL.
For K13 [Ce(SiW11 O39)2 ]26H2 O, in the data set with HIV-1 (HTLV-IIIB), the “Selectivity Index (SI), ratio” value was > 2561 and the ED50 was determined as 0.39 µg/mL. Besides, in the data set with HIV-2 (LAV-2 ROD), the “Selectivity Index (SI), ratio” value is recorded as > 6357 and the ED50 is 0.157 µg/mL. Also, the CD50 in the data set with MT-4 cells (human, mt-4 cells, 120 h) is > 1000.0 µg/mL.
As to “NaSb9 W21 O86 [HPA-23, reference compound]”, the figures for the “Selectivity Index (SI), ratio” value in the data set with HIV-1 (HTLV-IIIB) and with HIV-2 (LAV-2 ROD) were 3 and < 1, respectively. The values for the ED50 in the data set on HIV-1 (HTLV-IIIB) and in the data set on HIV-2 (LAV-2 ROD) were 2.8 µg/mL and > 4 µg/mL, respectively. In addition, the CD50 turned out to be 7.4 µg/mL in the data set with MT-4 cells (HIV-1, MT-4 cells, 5 days, 37° C., MTT) and 2.4 µg/mL with MT-4 cells (HIV-2, MT-4 cells, 5 days, 37° C., MTT). Moreover, the reverse transcriptase inhibition entry with reverse transcriptase is “reverse transcriptase inhibitor”.
With silicotungstate acid [H4 SiW12 O40], the “activity against HIV” value with HIV is reported as “activity against HIV”.
